Results on 29 compounds are retold here after ChEMBL document CHEMBL1128924, “Some benzenesulfonamido-substituted valerophenones that are selective antagonists for the 5-HT2C receptor” (Bioorg Med Chem Lett, 1996).

SMILES strings stand for the structures.

Common to all, as to type: cell-based
The target in assay [1] is 5-hydroxytryptamine receptor 2B (Homo sapiens, UniProt P41595). Nature of the assay: Displacement of [3H]-5-5HT from human cloned 5-hydroxytryptamine 2B receptor expressed in CHO-K1 cells. A general note: In a radioligand displacement assay an active substance lowers the binding of a labelled ligand.
Assay [2] addresses T1, 5-hydroxytryptamine receptor 2C (Homo sapiens, UniProt P28335).
T1 sequence (P28335 whole entry): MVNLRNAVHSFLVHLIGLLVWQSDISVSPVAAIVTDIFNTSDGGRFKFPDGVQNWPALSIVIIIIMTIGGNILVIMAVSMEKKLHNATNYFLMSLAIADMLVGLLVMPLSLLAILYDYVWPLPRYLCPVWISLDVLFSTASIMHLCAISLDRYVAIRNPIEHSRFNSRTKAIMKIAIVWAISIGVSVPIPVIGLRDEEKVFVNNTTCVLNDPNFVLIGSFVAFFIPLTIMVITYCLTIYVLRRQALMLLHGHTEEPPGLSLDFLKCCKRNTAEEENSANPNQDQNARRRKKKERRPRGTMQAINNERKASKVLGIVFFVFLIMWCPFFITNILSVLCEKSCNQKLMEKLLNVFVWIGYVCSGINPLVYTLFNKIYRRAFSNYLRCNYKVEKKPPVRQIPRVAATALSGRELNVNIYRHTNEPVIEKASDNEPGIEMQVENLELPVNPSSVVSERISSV
Nature of the assay: Displacement of [3H]mesulergine from human cloned 5-hydroxytryptamine 2C receptor expressed in CHO-K1 cells.

The target in assay [3] is T2, 5-hydroxytryptamine receptor 2A (Homo sapiens, UniProt P28223). Description: Displacement of [3H]-ketanserin from human cloned 5-hydroxytryptamine 2A receptor expressed in CHO-K1 cells.
Assay [4] concerns the target T3, 5-hydroxytryptamine receptor 2C (Rattus norvegicus, UniProt P08909).
T3 sequence (P08909 whole entry): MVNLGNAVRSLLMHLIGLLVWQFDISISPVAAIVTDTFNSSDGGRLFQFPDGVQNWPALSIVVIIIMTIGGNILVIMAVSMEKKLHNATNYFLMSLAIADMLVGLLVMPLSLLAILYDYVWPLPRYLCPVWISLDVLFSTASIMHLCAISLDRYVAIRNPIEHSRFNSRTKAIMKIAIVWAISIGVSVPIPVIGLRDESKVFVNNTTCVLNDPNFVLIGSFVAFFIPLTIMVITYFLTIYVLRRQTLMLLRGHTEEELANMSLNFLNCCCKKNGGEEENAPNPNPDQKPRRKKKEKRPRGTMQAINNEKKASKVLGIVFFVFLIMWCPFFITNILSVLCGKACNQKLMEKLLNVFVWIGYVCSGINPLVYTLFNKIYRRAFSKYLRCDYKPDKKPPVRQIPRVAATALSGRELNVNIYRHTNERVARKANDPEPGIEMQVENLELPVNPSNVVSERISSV
Nature of the assay: Compound was evaluated for displacement of [3H]mesulergine from cloned rat 5-hydroxytryptamine 2C receptor in transfected CHO-K1 cells.

The target of assay [5] is 5-hydroxytryptamine receptor 2A (Rattus norvegicus, UniProt P14842). Description: Compound was evaluated for displacement of [3H]ketanserin from cloned rat 5-hydroxytryptamine 2A receptor in transfected CHO-K1 cells.
Assay [6] has as its target T2, 5-hydroxytryptamine receptor 2A. Nature of the assay: Compound was evaluated for displacement of [3H]ketanserin from human cloned 5-hydroxytryptamine 2A receptor in transfected CHO-K1 cells.

Chain of 5-hydroxytryptamine receptor 2B (P41595 whole entry): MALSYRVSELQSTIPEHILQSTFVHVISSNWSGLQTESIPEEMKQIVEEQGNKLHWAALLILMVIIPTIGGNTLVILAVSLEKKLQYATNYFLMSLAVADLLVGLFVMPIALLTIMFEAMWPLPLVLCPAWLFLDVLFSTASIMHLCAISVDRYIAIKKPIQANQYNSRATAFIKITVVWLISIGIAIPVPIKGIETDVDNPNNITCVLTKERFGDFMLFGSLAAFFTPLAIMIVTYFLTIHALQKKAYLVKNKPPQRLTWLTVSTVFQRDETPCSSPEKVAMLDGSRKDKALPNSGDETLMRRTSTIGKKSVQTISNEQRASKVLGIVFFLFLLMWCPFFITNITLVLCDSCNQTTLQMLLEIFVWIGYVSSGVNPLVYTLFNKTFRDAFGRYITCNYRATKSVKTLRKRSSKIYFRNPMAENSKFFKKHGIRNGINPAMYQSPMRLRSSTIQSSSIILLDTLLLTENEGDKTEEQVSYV
Chain of 5-hydroxytryptamine receptor 2A (Rattus norvegicus, UniProt P14842) (P14842 whole entry, looked up): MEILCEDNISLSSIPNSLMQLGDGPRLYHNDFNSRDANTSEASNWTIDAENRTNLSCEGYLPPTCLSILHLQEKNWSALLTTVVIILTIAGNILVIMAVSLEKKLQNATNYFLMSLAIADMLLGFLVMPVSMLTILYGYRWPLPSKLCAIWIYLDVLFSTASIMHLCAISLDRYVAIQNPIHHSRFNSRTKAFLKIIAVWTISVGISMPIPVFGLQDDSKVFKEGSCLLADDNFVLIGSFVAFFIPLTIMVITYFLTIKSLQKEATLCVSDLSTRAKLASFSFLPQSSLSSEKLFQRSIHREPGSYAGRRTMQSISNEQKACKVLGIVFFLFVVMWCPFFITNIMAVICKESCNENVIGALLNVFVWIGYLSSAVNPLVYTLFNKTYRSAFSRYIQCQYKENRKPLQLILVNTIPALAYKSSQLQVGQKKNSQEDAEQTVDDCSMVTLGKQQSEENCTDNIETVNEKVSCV
T2 sequence (P28223 whole entry): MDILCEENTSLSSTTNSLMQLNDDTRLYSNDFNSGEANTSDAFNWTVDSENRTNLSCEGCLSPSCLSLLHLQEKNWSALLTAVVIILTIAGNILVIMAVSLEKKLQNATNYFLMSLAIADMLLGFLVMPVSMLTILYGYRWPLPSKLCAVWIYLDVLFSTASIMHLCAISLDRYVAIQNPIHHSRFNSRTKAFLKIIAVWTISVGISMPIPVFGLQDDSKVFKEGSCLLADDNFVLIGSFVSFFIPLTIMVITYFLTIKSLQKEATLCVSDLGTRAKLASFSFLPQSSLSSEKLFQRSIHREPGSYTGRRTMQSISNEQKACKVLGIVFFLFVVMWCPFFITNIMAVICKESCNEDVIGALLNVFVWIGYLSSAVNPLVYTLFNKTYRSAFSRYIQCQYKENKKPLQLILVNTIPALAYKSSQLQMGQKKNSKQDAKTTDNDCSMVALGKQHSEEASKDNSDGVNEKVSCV

Usually Ki stands for the equilibrium dissociation constant of an inhibitor or competing ligand from its target. `COc1cc(OC)c(C(=O)CCCCN2CCC3(CC2)NC(=O)NC3=O)cc1NS(=O)(=O)c1ccccc1Cl`: the Ki in assay [1] was 398 nM; in assay [2], 398 nM; in assay [3], greater than 10000 nM.
As for `COc1ccc(NS(=O)(=O)c2ccc(Cl)cc2)cc1C(=O)CCCCN1CCC2(CC1)NC(=O)NC2=O`, the inhibition constant (Ki) in assay [4] is 2 nM; in assay [5], 7.94 nM.
Take `COc1cc(OC)c(C(=O)CCCCN2CCC3(CC2)NC(=O)NC3=O)cc1NS(=O)(=O)c1ccc(C#N)cc1`: the inhibition constant (Ki) in assay [1] was 398 nM; in assay [2] it was 7.94 nM; in assay [3], 794 nM.
`COc1cc(OC)c(C(=O)CCCCN2CCC3(CC2)NC(=O)NC3=O)cc1NS(=O)(=O)c1ccc(F)cc1`: the Ki in assay [1] is 126 nM; in assay [2], 10 nM; in assay [3], greater than 10000 nM.
In the case of `COc1cc(OC)c(-c2ccccc2)cc1C(=O)CCCCN1CCC2(CC1)NC(=O)NC2=O`, the figures for the Ki in assay [1], in assay [2] and in assay [6] were 100 nM, 10 nM and 398 nM, respectively.
Turning to `COc1ccc(Oc2ccccc2)cc1C(=O)CCCCN1CCC2(CC1)NC(=O)NC2=O`, the Ki was 3.16 nM in assay [4] and 7.94 nM in assay [5].
In the case of `COc1cc(OC)c(C(=O)CCCCN2CCC3(CC2)NC(=O)NC3=O)cc1N`, the Ki in assay [4] is 39.8 nM; in assay [5] it was 126 nM.
For `COc1cc(OC)c(C(=O)CCCCN2CCC3(CC2)NC(=O)NC3=O)cc1NS(=O)(=O)c1cccc(C(F)(F)F)c1`, the Ki was 100 nM in assay [4] and 794 nM in assay [5].
On to `COc1cc(OC)c(C(=O)CCCCN2CCC3(CC2)NC(=O)NC3=O)cc1NS(=O)(=O)c1ccc(C)cc1`, for which the Ki was 316 nM in assay [1], 10 nM in assay [2] and 2510 nM in assay [3].
With `CN1C[C@@H](NS(=O)(=O)N(C)C)C[C@@H]2c3cccc4c3c(cn4C)C[C@H]21` [MESULERGINE], the inhibition constant (Ki) is 2 nM in assay [1] and 20 nM in assay [3].
Take `COc1ccc(-c2ccccc2)cc1C(=O)CCCCN1CCC2(CC1)NC(=O)NC2=O`: the inhibition constant (Ki) in assay [1] was 10 nM; in assay [2], 0.2 nM; in assay [6] it was 1 nM.
As for `COc1cc(OC)c(C(=O)CCCCN2CCC3(CC2)NC(=O)NC3=O)cc1NS(=O)(=O)c1ccc(OC(F)(F)F)cc1`, the results for the Ki in assay [1], in assay [2] and in assay [3] were 398 nM, 1.58 nM and 1000 nM, respectively.
As for `O=C(CCCN1CCC2(CC1)C(=O)NCN2c1ccccc1)c1ccc(F)cc1` [SPIPERONE], the Ki in assay [1] is 1260 nM; in assay [2], 631 nM.
With `COc1ccc(Cl)cc1C(=O)CCCCN1CCC2(CC1)NC(=O)NC2=O`, the inhibition constant Ki in assay [1] is 50.1 nM; in assay [2], 3.98 nM; in assay [6], 12.6 nM.
On to `COc1cc(Cl)ccc1C(=O)CCCCN1CCC2(CC1)NC(=O)NC2=O`, for which the inhibition constant (Ki) is 200 nM in assay [1], 6.31 nM in assay [2] and 126 nM in assay [6].
As to `COc1cc(OC)c(C(=O)CCCCN2CCC3(CC2)NC(=O)NC3=O)cc1Cl`, the values for the inhibition constant (Ki) in assay [4] and in assay [5] were 0.631 nM and 5.01 nM, respectively.
Consider `COc1cc(Cl)c(Cl)cc1C(=O)CCCCN1CCC2(CC1)NC(=O)NC2=O`, for which the Ki is 6.31 nM in assay [1], 0.251 nM in assay [2] and 6.31 nM in assay [6].
For `COc1cc(OC)c(C(=O)CCCCN2CCC3(CC2)NC(=O)NC3=O)cc1NS(=O)(=O)c1ccc(NC(C)=O)cc1`, the inhibition constant Ki was 316 nM in assay [1], 39.8 nM in assay [2] and greater than 10000 nM in assay [3].
For the compound `COc1cc(OC)c(C(=O)CCCCN2CCC3(CC2)NC(=O)NC3=O)cc1NS(=O)(=O)c1cccc(Cl)c1`, the results for the Ki in assay [1], in assay [2] and in assay [3] were 200 nM, 50.1 nM and 2000 nM, respectively.
As for `COc1cc(OC)c(C(=O)CCCCN2CCC3(CC2)NC(=O)NC3=O)cc1NS(=O)(=O)c1ccc(Cl)cc1`, the Ki in assay [1] was 79.4 nM; in assay [2], 5.01 nM; in assay [3] it was 794 nM.
`COc1cc(OC)c(C(=O)CCCCN2CCC3(CC2)NC(=O)NC3=O)cc1NS(=O)(=O)c1ccc(C(C)=O)cc1`: the figures for the Ki in assay [1], in assay [2] and in assay [3] were 251 nM, 39.8 nM and greater than 10000 nM, respectively.
`COc1cc(OC)c(C(=O)CCCCN2CCC3(CC2)NC(=O)NC3=O)cc1NS(=O)(=O)c1ccccc1`: the inhibitory constant (Ki) is 631 nM in assay [1], 31.6 nM in assay [2] and 3160 nM in assay [3].
As to `COc1ccc(OC)c(C(=O)CCCCN2CCC3(CC2)NC(=O)NC3=O)c1`, the Ki in assay [1] was 126 nM; in assay [2], 3.16 nM; in assay [6], 20 nM.
Turning to `COc1cc(OC)c(C(=O)CCCCN2CCC3(CC2)NC(=O)NC3=O)cc1NS(=O)(=O)c1ccc(C(F)(F)F)cc1` [RS-102,221], the Ki in assay [1] is 316 nM; in assay [2], 2 nM; in assay [3] it was 631 nM.
As to `COc1ccc(NS(=O)(=O)c2ccccc2)cc1C(=O)CCCCN1CCC2(CC1)NC(=O)NC2=O`, the inhibitory constant (Ki) in assay [4] is 6.31 nM; in assay [5], 20 nM.
Regarding `COc1cc(OC)c(C(=O)CCCCN2CCC3(CC2)NC(=O)NC3=O)cc1NS(=O)(=O)c1ccc(S(N)(=O)=O)cc1`, the figures for the Ki in assay [1], in assay [2] and in assay [3] were 3160 nM, 79.4 nM and greater than 10000 nM, respectively.
`COc1ccccc1C(=O)CCCCN1CCC2(CC1)NC(=O)NC2=O`: the Ki in assay [1], in assay [2] and in assay [6] was greater than 10000 nM in each case.
Consider `COc1cc(OC)c(C(=O)CCCCN2CCC3(CC2)NC(=O)NC3=O)cc1NS(=O)(=O)c1ccc(C(C)C)cc1`, for which the inhibition constant Ki in assay [1] was 1260 nM; in assay [2], 1.58 nM; in assay [3], 1260 nM.
Regarding `COc1ccc(S(=O)(=O)Nc2cc(C(=O)CCCCN3CCC4(CC3)NC(=O)NC4=O)c(OC)cc2OC)cc1`, the Ki was 1260 nM in assay [1], 20 nM in assay [2] and 2000 nM in assay [3].
